In paper PMC7125024 (ChemMedChem, 2020):
Structures can show the parent of a compound that is named as a salt. Where two headings read alike, the source gives them in different places.

Assays:
NB4 APL cells [1] = conditions: read-out: IC50 NB4 (antiproliferative activity), 48 h
human MAO A = target: T1, human MAO A (Homo sapiens, UniProt P21397); assay: Anti-MAO assay; type: biochemical; conditions: for % inhibition at 100 μM MAO A: NI = no inhibition; for inhibition at 100 µM: read-out: % inhibition at 100 μM MAO A
T1 sequence (P21397 1-527): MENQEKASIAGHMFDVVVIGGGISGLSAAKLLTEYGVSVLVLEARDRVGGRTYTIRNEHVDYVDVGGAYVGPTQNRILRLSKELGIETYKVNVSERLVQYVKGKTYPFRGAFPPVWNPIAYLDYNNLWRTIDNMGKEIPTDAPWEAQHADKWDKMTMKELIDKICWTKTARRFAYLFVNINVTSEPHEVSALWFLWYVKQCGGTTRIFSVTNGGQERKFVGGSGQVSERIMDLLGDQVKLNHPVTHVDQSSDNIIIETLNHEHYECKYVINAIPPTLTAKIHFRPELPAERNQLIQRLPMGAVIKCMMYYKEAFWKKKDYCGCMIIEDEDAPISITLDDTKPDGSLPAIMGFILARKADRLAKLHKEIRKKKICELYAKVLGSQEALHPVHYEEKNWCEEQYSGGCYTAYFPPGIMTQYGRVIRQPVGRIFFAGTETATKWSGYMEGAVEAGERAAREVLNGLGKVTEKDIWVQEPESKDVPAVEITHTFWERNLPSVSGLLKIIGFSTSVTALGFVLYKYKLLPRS

MV4–11 AML cells [2] = conditions: read-out: IC50 MV4–11 (antiproliferative activity), 48 h
human MAO B [3] = target: T2, human MAO B (Homo sapiens, UniProt P27338); assay: Anti-MAO assay; type: biochemical; conditions: read-out: % inhibition at 100 μM MAO B
T2 sequence (P27338 1-520): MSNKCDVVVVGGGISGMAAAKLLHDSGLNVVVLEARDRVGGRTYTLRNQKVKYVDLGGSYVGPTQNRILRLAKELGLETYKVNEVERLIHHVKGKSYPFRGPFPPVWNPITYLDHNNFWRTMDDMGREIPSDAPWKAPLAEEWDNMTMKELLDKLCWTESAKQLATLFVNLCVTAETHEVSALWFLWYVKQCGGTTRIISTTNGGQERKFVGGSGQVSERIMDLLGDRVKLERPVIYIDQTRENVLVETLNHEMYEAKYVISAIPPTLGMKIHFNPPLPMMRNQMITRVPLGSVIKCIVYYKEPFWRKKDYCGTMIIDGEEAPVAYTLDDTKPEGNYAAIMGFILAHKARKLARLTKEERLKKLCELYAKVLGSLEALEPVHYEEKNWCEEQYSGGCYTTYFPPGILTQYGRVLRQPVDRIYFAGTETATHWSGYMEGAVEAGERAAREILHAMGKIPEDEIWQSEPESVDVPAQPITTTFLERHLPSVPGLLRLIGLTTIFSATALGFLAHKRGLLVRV

MV4–11 AML cells [4] = assay: cells; conditions: Homo sapiens, MV4-11, 48 h, read-out: IC50 MV4–11 (antiproliferative activity)
NB4 APL cells [5] = assay: cells; conditions: Homo sapiens, 48 h, read-out: IC50 NB4 (antiproliferative activity)
human MAO B [6] = target: T2, human MAO B; conditions: added for comparison, ref [13b], [19]; cited from earlier work
[7] = target: human recombinant LSD1/CoREST enzymatic complex (Homo sapiens, UniProt O60341); assay: LSD1 enzyme inhibition assay; type: biochemical
[8] = Microsomal stability in liver microsomes; type: in vitro ADME; conditions: human, pH 7.4
[9] = Microsomal stability in liver microsomes; type: in vitro ADME; conditions: mouse, pH 7.4
[10] = read-out: LSD1, IC50, LSD1/CoREST, 15 min preincubation, NI = no inhibition

| Compound | IC50 (MV4–11 AML cells [4]) | IC50 (NB4 APL cells [5]) | IC50 [7] | IC50 [7, 10] | further results |
| --- | --- | --- | --- | --- | --- |
| N[C@@H]1C[C@H]1c1ccccc1 (racemic) [TCP, tranylcypromine, reference compound] | – | – | – | – | IC50 (NB4 APL cells [1]): > 100 µM; % inhibition at 100 μM MAO A (human MAO A): 79%; IC50 (MV4–11 AML cells [2]): > 100 µM |
| NC1CC1c1ccc(NC(=O)OCc2ccccc2)cc1 (centres unmarked) [1b, benzyl [4-(2-aminocyclopropyl)phenyl]carbamate] | 22.4 ± 3.8 µM | 25 ± 3.2 µM | – | – | inhibition at 100 µM (human MAO B [3]): 37%; inhibition at 100 µM (human MAO A): 96% |
| NC1CC1c1ccc(NC(=O)C(Cc2ccccc2)NC(=O)OCc2ccccc2)cc1 (centres unmarked) [2a] | – | – | – | – | % inhibition at 100 μM MAO B (human MAO B [6]): 1% |
| Cl.NC1CC1c1cccc(NC(=O)C(Cc2ccccc2)NC(=O)OCc2ccccc2)c1 (centres unmarked) [2b, Benzyl (1-((3-(2-aminocyclopropyl)phenyl)amino)-1-oxo-3-phenylpropan-2-yl)carbamate hydrochloride] | 24.2 ± 3.1 µM | 42.7 ± 5.8 µM | 18.1 ± 2.9 µM | – | fold decrease of anti-LSD1 potency relative to 2a [7]: > 120 fold |
| NC1CC1c1ccc(NC(=O)c2ccc(NC(=O)OCc3ccccc3)cc2)cc1 (centres unmarked) [3a, Benzyl (4-((4-(2-aminocyclopropyl)phenyl)carbamoyl)phenyl)carbamate hydrochloride] | 0.4 ± 0.01 µM | 0.6 ± 0.02 µM | 0.09 ± 0.012 µM | – | microsomal CLint at 1 μM [8]: 6.7 ± 1.1 µL/min/mg; inhibition at 100 µM (human MAO B [3]): 8%; inhibition at 100 µM (human MAO A): 37%; microsomal CLint at 1 μM [9]: 7.1 ± 2.2 µL/min/mg |
| CN1CCN(c2cc(C(=O)Nc3ccc(C4CC4N)cc3)ccc2NC(=O)OCc2ccccc2)CC1 (centres unmarked) [3c, Benzyl 4-(4-(2-aminocyclopropyl)phenylcarbamoyl)-2-(4-methylpiperazin-1-yl)phenylcarbamate hydrochloride] | 2.5 ± 0.1 µM | 0.9 ± 0.06 µM | 0.089 ± 0.01 µM | – | inhibition at 100 µM (human MAO B [3]): 55%; inhibition at 100 µM (human MAO A): 69% |
| NC1CC1c1ccc(NC(=O)c2ccc(Oc3ccccc3)c(NC(=O)OCc3ccccc3)c2)cc1 (centres unmarked) [3h, Benzyl (5-((4-(2-aminocyclopropyl)phenyl)carbamoyl)-2-phenoxyphenyl)carbamate hydrochloride] | 3.3 ± 0.3 µM | 5.4 ± 0.6 µM | 0.143 ± 0.028 µM | – | – |
| NC1CC1c1ccc(NC(=O)c2ccc(Sc3ccccc3)c(NC(=O)OCc3ccccc3)c2)cc1 (centres unmarked) [3i, Benzyl (5-((4-(2-aminocyclopropyl)phenyl)carbamoyl)-2-(phenylthio)phenyl)carbamate hydrochloride] | 21.4 ± 3.3 µM | 23.2 ± 3.8 µM | 0.073 ± 0.011 µM | – | – |
| NC1CC1c1ccc(NC(=O)c2ccccc2NC(=O)OCc2ccccc2)cc1 (centres unmarked) [3j, Benzyl (2-((4-(2-aminocyclopropyl)phenyl)carbamoyl)phenyl)carbamate hydrochloride] | 8.2 ± 1.2 µM | 8.1 ± 0.9 µM | 0.146 ± 0.022 µM | – | inhibition at 100 µM (human MAO B [3]): 17%; inhibition at 100 µM (human MAO A): 72% |
| Cl.NC1CC1c1ccc(NC(=O)c2ccc(Br)cc2NC(=O)OCc2ccccc2)cc1 (centres unmarked) [3k, Benzyl (2-((4-(2-aminocyclopropyl)phenyl)carbamoyl)-5-bromophenyl)carbamate hydrochloridrate] | – | – | – | 0.159 ± 0.034 µM | IC50 (NB4 APL cells [1]): 9.3 ± 1 µM; % inhibition at 100 μM MAO A (human MAO A): 94%; IC50 (MV4–11 AML cells [2]): 6.2 ± 0.7 µM |
| NC1CC1c1ccc(NC(=O)c2ccc(-c3ccccc3)cc2NC(=O)OCc2ccccc2)cc1 (centres unmarked) [3l, Benzyl (4-((4-(2-aminocyclopropyl)phenyl)carbamoyl)-[1,1’-biphenyl]-3-yl)carbamate hydrochloride] | 8.1 ± 1 µM | 7.6 ± 0.8 µM | 0.135 ± 0.029 µM | – | – |
| NC1CC1c1ccc(NC(=O)c2cc(NC(=O)c3ccccc3)ccc2OCC(=O)Nc2ccccc2)cc1 (centres unmarked) [3m, N-(4-(2-aminocyclopropyl)phenyl)-5-benzamido-2-(2-oxo-2-(phenylamino)ethoxy)benzamide hydrochloride] | 5.6 ± 1.1 µM | 5.5 ± 1.4 µM | 3.9 ± 0.2 µM | – | – |
| NC1CC1c1ccc(NC(=O)c2cc(NC(=O)c3ccccc3)ccc2OCC(=O)NCc2ccccc2)cc1 (centres unmarked) [3n, N-(4-(2-aminocyclopropyl)phenyl)-5-benzamido-2-(2-(benzylamino)-2-oxoethoxy)benzamide] | 3.3 ± 0.6 µM | 3.8 ± 0.8 µM | 1.7 ± 0.05 µM | – | – |
| CNC1CC1c1ccccc1 (centres unmarked) [4a, N-methyl-TCP] | – | – | – | 10.8 ± 1.1 µM | LSD1/CoREST potency relative to TCP (fold less effective) [7]: same potency of TCP |
| CN(C)C1CC1c1ccccc1 (centres unmarked) [4b, N,N-dimethyl-TCP] | – | – | – | 56.2 ± 7.8 µM | LSD1/CoREST potency relative to TCP (fold less effective) [7]: 5 fold |
| NC(=O)C1CC1c1ccccc1 (centres unmarked) [4c, 2-Phenylcyclopropane-1-carboxamide] | – | – | – | > 100 µM | – |
| NNC(=O)C1CC1c1ccccc1 (centres unmarked) [4d, 2-phenylcyclopropane-1-carbohydrazide] | – | – | – | > 100 µM | – |
| NC1(c2ccccc2)CC1 [4e, 1-Phenylcyclopropan-1-amine hydrochloride] | – | – | – | > 100 µM | – |
| NC1(c2ccc(NC(=O)C(Cc3ccccc3)NC(=O)OCc3ccccc3)cc2)CC1 (centres unmarked) [4f, Benzyl (1-((4-(1-aminocyclopropyl)-phenyl)-amino)-1-oxo-3-phenylpropan-2-yl)-carbamate hydrochloride] | – | – | – | > 100 µM | – |
| NC(=O)C1(c2ccccc2)CC1 [4g, 1-Phenylcyclopropane-1-carboxamide] | – | – | – | > 100 µM | – |
| NCC1(c2ccccc2)CC1 [4h, (1-phenylcyclopropyl)methanamine] | – | – | – | > 100 µM | – |
| NN1CC1c1ccccc1 (centres unmarked) [4i, 2-phenylaziridin-1-amine] | – | – | – | > 100 µM | – |
